Assay results taken from US8901276B2, “Peptide reagents and methods for detection of colon dysplasia” (The Regents of the University of Michigan, priority 2010, dated 2014).
Where no end group is shown, it is not given here. The star is where a group is joined. 5‑TAMRA = CN(C)c1ccc2c(-c3ccc(C(=O)*)cc3C(=O)[O-])c3ccc(N(C)C)cc3[o+]c2c1; DEAC = CCN(CC)c1ccc2cc(C(=O)*)c(=O)oc2c1; Cy5.5 = Cy5.5 fluorescent dye; Ahx = NCCCCCC(=O)O

Columns and labels:
colonic adenomas [1] = assay: In vivo imaging with non-scanning endoscope, FITC-labeled peptides; design: species or system CPC; Apc mice; details: Non-scanning Endoscopy Results; FITC label; mean ± SD
Source text: Specific binding of the candidate peptides to primary dysplastic colonic epithelial cells were validated on flow cytometry ex vivo and with small animal endoscopy in vivo using FITC-labeled peptides using a non-scanning white light endoscope.

colonic adenomas [2] = assay: In vivo imaging with multi-spectral scanning fiber endoscope; design: species or system CPC; Apc mice; details: 100 μM topical, 5 min; for Average T/B: Multi-Spectral Scanning Fiber Endoscopy Results, mean ± SD
Source text: A scanning fiber endoscope system was adapted for fluorescence detection in three channels (RGB) using excitation at 440 (NDHB510APA, Nichia, Tokyo, Japan), 532 (FTEC532-V10TA0, Blue Sky Research, Milpitas, Calif.) and 635 (FMXL635-017TA0B, Blue Sky Research) nm using an RGB coupler (OZ Optics, Ottawa, Canada). The three laser sources are delivered simultaneously into the scanning fiber, and focused to the same point on the illumination plane using a custom lens assembly, as shown in the schematic in FIG. 2A. The laser power coming out of the distal tip of the endoscope is <2 mW for each channel, a level consistent with a non-significant risk (NSR) determination by the U.S. Food and Drug Administration (FDA, 21 CFR 812) for future human clinical studies. The amplitude of the spiral scanner was reduced to achieve a divergence angle of 70 deg (max 100 deg) to minimize noise in the periphery of the image. Fluorescence is collected by a ring of 12 step-index plastic optical fibers (POF) with numerical aperture (N.A.) of 0.63 and outer diameter of 250 μm (Toray Industries Inc, Tokyo, Japan).
The CPC;Apc mice were first imaged with white light using a non-scanning endoscope (Karl Storz Veterinary Endoscopy, Goleta, Calif.) to assess for the presence of colonic adenomas that have a size between ˜0.5 to 4 mm in diameter. Any adenomas were rinsed of debris including stool and mucous, by delivering tap water through a 3 Fr instrument channel. Then, the fluorescent-labeled peptides were delivered topically at a concentration of 100 μM in 1×PBS in a volume of 1 mL to the distal 4 cm of the colon and rectum. The peptides were incubated for 5 minutes and then the unbound peptides were rinsed away with tap water 3 times. The colon was inspected for any residual peptide, and when clean, the colon was insufflated with air and imaged with the multi-spectral scanning fiber endoscope.
Videos collected during endoscopy were exported as avi video files and converted into sequential png images using Apple QuickTime. White light and fluorescence images for each adenoma were analyzed in NIH Image J. The white light image was utilized to draw a region of interest (ROI) around the adenoma or adjacent normal appearing colonic mucosa which was then superimposed onto the fluorescence image. The mean fluorescence intensities were calculated for each ROI, and a target/background (T/B) ratio was calculated for each colonic adenoma and compared to the surrounding normal appearing mucosa.

HT29 cells = assay: Competitive inhibition assay (bound phage counts); assay type: cell-based, human
Method: Bound phage counts were performed to observe the competitive inhibition effect of the synthetic candidate heptapeptide with its representative phage counterpart in triplicate. HT29 cells (5×10^6) were detached with enzyme free cell dissociation buffer and blocked with 1% BSA containing PBS for 30 min at 4° C. The cells were washed and incubated with phage (2×10^11) for 15 min. Then, the cells were washed with PBS and immediately incubated with different concentrations of unlabeled peptide ranging from 10 to 200 μM for an additional 15 min. Cells were washed 3× and the bound phages were recovered as described above in bound phage counts. The bound phages were then tittered and counted, and the relative inhibition rate was calculated. The inhibition activity of no-insert WT phage by synthetic candidate peptide and phage with unrelated synthetic control peptide were used as negative controls.

[3] = system: colonic dysplasia (adenomas); assay: In vivo NIR fluorescence endoscopic imaging; design: species or system CPC;Apc mice; details: for fluorescence signal on in vivo NIR image: 100 μM topical, 5 min; for average T/B ratio: adenoma/adjacent normal ratio as defined
Source text: Anesthesia was induced and maintained with inhaled isofluorane mixed with oxygen via a nose cone at a dose of 4% and 2% at a flow rate 0.5 liter/min, respectively. Prior to peptide administration, the colon of each mouse was cleaned with a tap water lavage to remove debris. The conventional white light endoscope was used first with a color camera to identify the presence of adenomas. The colon was then rinsed with water until all of the visible mucous was removed. The Cy5.5-labeled peptides were then delivered at a concentration of 100 μM in 1×PBS containing 2.5% DMSO […] through the instrument channel. The peptides were allowed to incubate for 5 minutes, and then the colon was cleansed 3 times with a tap water to remove any unbound peptide. Prior to imaging, the colon was inspected for residual peptide solution, and when clean, the colon was insufflated with air for imaging. Fluorescence images were collected using Axiovision 4.8.1 software.
Images collected during endoscopy were recorded as .zvi files and converted into .tiff images using Axiovision Lite software. Consecutive white light and fluorescence images for each adenoma were analyzed. Regions of interest (ROI) around the adenoma and adjacent normal-appearing mucosa were defined on the color and fluorescence images using Labview®. The white light image was utilized to draw an ROI around the adenoma or adjacent normal appearing colonic mucosa which was then superimposed onto the fluorescent image. Mean gray scale values were calculated for each ROI, and an adenoma/normal colon, or a T/B ratio, value was then calculated for each adenoma. The mean fluorescence intensities were calculated from each ROI to determine the ratio of the average intensities for the adenomas to that from adjacent normal-appearing mucosa, or T/B ratio.
Two-tailed independent samples t-tests (significance level at α=0.05) were used to determine statistical significance between the T/B ratio for the QPI-Cy5.5 and YTT-Cy5.5 peptides binding to colonic adenomas in the CPC;Apc mice. All statistical computations were processed either using statistical software (SPSS15.0.; SPSS, Chicago, Ill.) or Minitab (Minitab Inc. State College, Pa.).

[4] = system: human colonic mucosa sections (normal, dysplasia, adenocarcinoma); assay: Cy5.5-labeled peptide staining of human colonic mucosa sections; details: for sections of adenocarcinoma stained / sections of dysplasia stained: stained/total sections
Method: All specimens were obtained with approval from the University of Michigan Institutional Review Board (IRB). Freshly resected specimens of human colonic mucosa were frozen in OCT and sectioned with 10 μm thickness using Microm-HM-550 Microtome (EquipNet, Inc. Canton, Mass.). The sections were then air dried, washed with PBS 1×, and incubated with the Cy5.5-labeled peptides at a concentration of 10 μM for 15 min at RT. The sections were washed 3× for 1 min in PBS and fixed with 4% paraformaldehyde for 10 min. After fixation, the sections were washed again (1×) and mounted with ProLong Gold reagent with DAPI (Invitrogen, Carlsbad, Calif.). The sections were imaged under a confocal microscope (Leica TCS SP5 Microsystems, Bannockburn, Ill.). Adjacent sections were sent for routine histology. The average intensity from the entire field-of-view of each image was calculated using Matlab (Mathworks, Natick, Mass.).
For the ex-vivo peptide immunohistochemistry, the nonparametric Kruskal-Wallis test was used to determine if observed differences are statistically significant among all three pathological classifications. The nonparametric Mann-Whitney test was used for comparisons between two independent samples, and differences with p<0.05 were considered significant.

With “AKPGYLS-FITC: AKPGYLS labeled with 5′-FITC at the C-terminus via GGGSK linker (not fully specified; GGGSK linker, FITC)” as the substance, how does the “Average T/B” value (colonic adenomas [1]) read?
Its value is 1.53 ± 0.48.

Which “Average T/B” value (colonic adenomas [1]) does the source give for “ALTPTPP-FITC: ALTPTPP labeled with 5′-FITC at the C-terminus via GGGSK linker (not fully specified; GGGSK linker, FITC)” here?
Its value is 1.19 ± 0.18.

For “ANYPREP-FITC: ANYPREP labeled with 5′-FITC at the C-terminus via GGGSK linker (not fully specified; GGGSK linker, FITC)”, which “Average T/B” value (colonic adenomas [1]) is on record?
The value was 0.94 ± 0.11.

Which “Average T/B” value (colonic adenomas [1]) does the source give for “ATTVPAS-FITC: ATTVPAS labeled with 5′-FITC at the C-terminus via GGGSK linker (not fully specified; GGGSK linker, FITC)” here?
Its value is 1.06 ± 0.33.

For “GGGAGGG-FITC: FITC-labeled GGGAGGG control peptide; probably the same as FITC-Control peptide 2 (also: FITC label, site not given here) [reference compound]”, which “Average T/B” value (colonic adenomas [1]) is on record?
Its value is 1.05 ± 0.05.

“GGGAGGGAGGGK (5-TAMRA)-NH2 (GGGAGGGAGGGK(5‑TAMRA)-NH2; N-terminus assumed; SMILES C[C@H](NC(=O)CNC(=O)CNC(=O)CN)C(=O)NCC(=O)NCC(=O)NCC(=O)N[C@@H](C)C(=O)NCC(=O)NCC(=O)NCC(=O)N[C@@H](CCCCNC(=O)c1ccc(-c2c3ccc(N(C)C)cc3[o+]c3cc(N(C)C)ccc23)c(C(=O)[O-])c1)C(N)=O) [GGGAGGG-TAMRA, reference compound]” was tested. Which “binding to colonic dysplasia/adenomas on fluorescence images” value (from here on “binding to colonic dysplasia/adenomas”) (colonic adenomas [2]) did it give?
The value was “minimal signal”.

And the “Average T/B” value (colonic adenomas [2])?
The value was 1.32±0.10.

With “GGGAGGGAGGGK (DEAC)-NH2 (GGGAGGGAGGGK(DEAC)-NH2; N-terminus assumed; SMILES CCN(CC)c1ccc2cc(C(=O)NCCCC[C@H](NC(=O)CNC(=O)CNC(=O)CNC(=O)[C@H](C)NC(=O)CNC(=O)CNC(=O)CNC(=O)[C@H](C)NC(=O)CNC(=O)CNC(=O)CN)C(N)=O)c(=O)oc2c1) [GGGAGGG-DEAC, reference compound]” as the substance, how does the “binding to colonic dysplasia/adenomas” value (colonic adenomas [2]) read?
Its value is “minimal signal”.

And the “Average T/B” value (colonic adenomas [2])?
The value was 1.19±0.09.

Which results are given for “KCCFPAQ [Peptide 2, heptapeptide from M13 phage display]”?
bound KCCFPAQ phage count (HT29 cells; HT29, 200 μM unlabeled KCCFPAQ peptide): 3.8×10^4±6.6×10^3; inhibition of WT phage binding (HT29 cells; addition of KCCFPAQ peptide): did not inhibit; rate of inhibition at saturation (HT29 cells; peptide concentration above ˜75 μM): > 98%; inhibition of KCCFPAQ phage binding to HT29 cells (HT29 cells; up to 200 μM unlabeled peptide): in a dose-dependent manner

Which “binding to colonic dysplasia/adenomas” value (colonic adenomas [2]) does the source give for “LTTHYKL-CF633: LTTHYKL labeled with CF633 (also: CF633 label, place not given here)” here?
Its value is “more subtle”.

Which “Average T/B” value (colonic adenomas [1]) does the source give for “LTTHYKL-FITC: LTTHYKL labeled with 5′-FITC at the C-terminus via GGGSK linker (not fully specified; GGGSK linker, FITC)” here?
The value was 1.50 ± 0.73.

“NLVNLLP-FITC: NLVNLLP labeled with 5′-FITC at the C-terminus via GGGSK linker (not fully specified; GGGSK linker, FITC)” was tested. Which “Average T/B” value (colonic adenomas [1]) did it give?
Its value is 0.99 ± 0.06.

Which results are given for “QPI-Cy5.5: QPIHPNNM conjugated with Cy5.5 on the N-terminus via an amino-hexanoic acid linker ({Cy5.5-Ahx}-QPIHPNNM; not fully specified)”?
fluorescence signal on in vivo NIR image [3]: significant contrast enhancement; average T/B ratio [3]: 3.42±1.30; staining of dysplasia and adenocarcinoma ([4]; 10 μM, 15 min, RT): consistently stained; staining of normal colonic mucosa ([4]; 10 μM, 15 min, RT): did not stain any of the 7 sections; staining of normal colonic mucosa ([4]; 10 μM, 15 min, RT, listed as QPI-CY5.5): no binding; T/B ratio QPI-Cy5.5 in comparison to YTT-Cy5.5 ([4]; adenocarcinoma): 2.9; intensity ratio relative to normal colonic mucosa ([4]; adenocarcinoma): 6.5; mean NIR fluorescence intensity ([4]; adenocarcinoma): 9.8±2.4 AU; T/B ratio QPI-Cy5.5 in comparison to YTT-Cy5.5 ([4]; dysplasia): 26.7; intensity ratio relative to normal colonic mucosa ([4]; dysplasia): 7.1; mean NIR fluorescence intensity ([4]; dysplasia): 10.7±3.3 AU; mean NIR fluorescence intensity ([4]; normal): 1.5±1.0 AU; T/B ratio QPI-Cy5.5 in comparison to YTT-Cy5.5 ([4]; normal mucosa): 1.8; sections of adenocarcinoma stained [4]: 8/10; sections of dysplasia stained [4]: 6/8

For YTTNKH [YTT-Cy5.5, reference compound], which “fluorescence signal on in vivo NIR image” value [3] is on record?
Its value is “negligible signal”.

And the “average T/B ratio” value [3]?
Its value is 1.88±0.38.

What about the “staining of any specimen (normal, dysplasia, adenocarcinoma)” value ([4]; 10 μM, 15 min, RT) of the same substance?
The value was “did not stain any of the specimens”.

What about the “staining of normal colonic mucosa” value ([4]; 10 μM, 15 min, RT) of the same substance?
Its value is “did not stain”.

What about the “sections of adenocarcinoma stained” value [4] of the same substance?
Its value is 5/10.

And the “sections of dysplasia stained” value [4]?
The value was “did not stain”.
